According to the OligoGym collection:
Oligonucleotides are given in HELM: sugar(base)linkage, 5' to 3'; d 2'-deoxyribose, r ribose, m 2'-O-methylribose, p phosphate. ss, as = sense and antisense strand

Each substance was assayed against UBE2K (assay: reporter assay of Huesken 2005). Conditions: siRNA.
Note: test concentration or dose not given here.

Substance	normalised inhibition (eCFP-eYFP dual reporter)
RNA1{r(C)p.r(A)p.r(G)p.r(A)p.r(C)p.r(A)p.r(C)p.r(A)p.r(C)p.r(C)p.r(A)p.r(U)p.r(A)p.r(U)p.r(G)p.r(A)p.r(A)p.r(G)p.r(G)p.d(T)p.d(T)}|RNA2{r(C)p.r(C)p.r(U)p.r(U)p.r(C)p.r(A)p.r(U)p.r(A)p.r(U)p.r(G)p.r(G)p.r(U)p.r(G)p.r(U)p.r(G)p.r(U)p.r(C)p.r(U)p.r(G)p.d(G)p.d(A)}$$$RNA1{StrandType:ss}|RNA2{StrandType:as}$	72.8%
RNA1{r(C)p.r(A)p.r(G)p.r(A)p.r(G)p.r(C)p.r(C)p.r(A)p.r(G)p.r(A)p.r(U)p.r(G)p.r(A)p.r(U)p.r(C)p.r(C)p.r(A)p.r(C)p.r(A)p.d(T)p.d(T)}|RNA2{r(U)p.r(G)p.r(U)p.r(G)p.r(G)p.r(A)p.r(U)p.r(C)p.r(A)p.r(U)p.r(C)p.r(U)p.r(G)p.r(G)p.r(C)p.r(U)p.r(C)p.r(U)p.r(G)p.d(C)p.d(A)}$$$RNA1{StrandType:ss}|RNA2{StrandType:as}$	82.5%
RNA1{r(C)p.r(A)p.r(G)p.r(G)p.r(A)p.r(U)p.r(G)p.r(C)p.r(U)p.r(G)p.r(U)p.r(A)p.r(G)p.r(U)p.r(A)p.r(G)p.r(C)p.r(A)p.r(A)p.d(T)p.d(T)}|RNA2{r(U)p.r(U)p.r(G)p.r(C)p.r(U)p.r(A)p.r(C)p.r(U)p.r(A)p.r(C)p.r(A)p.r(G)p.r(C)p.r(A)p.r(U)p.r(C)p.r(C)p.r(U)p.r(G)p.d(T)p.d(G)}$$$RNA1{StrandType:ss}|RNA2{StrandType:as}$	93%
RNA1{r(C)p.r(A)p.r(G)p.r(U)p.r(A)p.r(C)p.r(A)p.r(A)p.r(A)p.r(C)p.r(A)p.r(A)p.r(A)p.r(A)p.r(U)p.r(C)p.r(C)p.r(C)p.r(G)p.d(T)p.d(T)}|RNA2{r(C)p.r(G)p.r(G)p.r(G)p.r(A)p.r(U)p.r(U)p.r(U)p.r(U)p.r(G)p.r(U)p.r(U)p.r(U)p.r(G)p.r(U)p.r(A)p.r(C)p.r(U)p.r(G)p.d(A)p.d(T)}$$$RNA1{StrandType:ss}|RNA2{StrandType:as}$	70.1%
RNA1{r(C)p.r(C)p.r(A)p.r(G)p.r(A)p.r(A)p.r(A)p.r(C)p.r(A)p.r(U)p.r(A)p.r(C)p.r(C)p.r(C)p.r(A)p.r(U)p.r(U)p.r(U)p.r(A)p.d(T)p.d(T)}|RNA2{r(U)p.r(A)p.r(A)p.r(A)p.r(U)p.r(G)p.r(G)p.r(G)p.r(U)p.r(A)p.r(U)p.r(G)p.r(U)p.r(U)p.r(U)p.r(C)p.r(U)p.r(G)p.r(G)p.d(T)p.d(A)}$$$RNA1{StrandType:ss}|RNA2{StrandType:as}$	72.4%
RNA1{r(C)p.r(C)p.r(A)p.r(G)p.r(A)p.r(U)p.r(G)p.r(A)p.r(U)p.r(C)p.r(C)p.r(A)p.r(C)p.r(A)p.r(G)p.r(G)p.r(A)p.r(U)p.r(G)p.d(T)p.d(T)}|RNA2{r(C)p.r(A)p.r(U)p.r(C)p.r(C)p.r(U)p.r(G)p.r(U)p.r(G)p.r(G)p.r(A)p.r(U)p.r(C)p.r(A)p.r(U)p.r(C)p.r(U)p.r(G)p.r(G)p.d(C)p.d(T)}$$$RNA1{StrandType:ss}|RNA2{StrandType:as}$	66.7%
RNA1{r(C)p.r(C)p.r(C)p.r(G)p.r(A)p.r(A)p.r(A)p.r(U)p.r(G)p.r(U)p.r(U)p.r(C)p.r(A)p.r(A)p.r(A)p.r(C)p.r(A)p.r(G)p.r(A)p.d(T)p.d(T)}|RNA2{r(U)p.r(C)p.r(U)p.r(G)p.r(U)p.r(U)p.r(U)p.r(G)p.r(A)p.r(A)p.r(C)p.r(A)p.r(U)p.r(U)p.r(U)p.r(C)p.r(G)p.r(G)p.r(G)p.d(A)p.d(T)}$$$RNA1{StrandType:ss}|RNA2{StrandType:as}$	92.7%
RNA1{r(C)p.r(C)p.r(G)p.r(C)p.r(A)p.r(C)p.r(G)p.r(G)p.r(U)p.r(A)p.r(U)p.r(U)p.r(A)p.r(U)p.r(U)p.r(G)p.r(U)p.r(C)p.r(A)p.d(T)p.d(T)}|RNA2{r(U)p.r(G)p.r(A)p.r(C)p.r(A)p.r(A)p.r(U)p.r(A)p.r(A)p.r(U)p.r(A)p.r(C)p.r(C)p.r(G)p.r(U)p.r(G)p.r(C)p.r(G)p.r(G)p.d(A)p.d(G)}$$$RNA1{StrandType:ss}|RNA2{StrandType:as}$	63.3%
RNA1{r(C)p.r(C)p.r(G)p.r(G)p.r(U)p.r(U)p.r(U)p.r(A)p.r(U)p.r(C)p.r(A)p.r(C)p.r(U)p.r(A)p.r(A)p.r(A)p.r(A)p.r(U)p.r(A)p.d(T)p.d(T)}|RNA2{r(U)p.r(A)p.r(U)p.r(U)p.r(U)p.r(U)p.r(A)p.r(G)p.r(U)p.r(G)p.r(A)p.r(U)p.r(A)p.r(A)p.r(A)p.r(C)p.r(C)p.r(G)p.r(G)p.d(A)p.d(C)}$$$RNA1{StrandType:ss}|RNA2{StrandType:as}$	89.7%
RNA1{r(C)p.r(C)p.r(U)p.r(A)p.r(A)p.r(U)p.r(A)p.r(U)p.r(U)p.r(A)p.r(G)p.r(U)p.r(U)p.r(C)p.r(C)p.r(G)p.r(U)p.r(C)p.r(A)p.d(T)p.d(T)}|RNA2{r(U)p.r(G)p.r(A)p.r(C)p.r(G)p.r(G)p.r(A)p.r(A)p.r(C)p.r(U)p.r(A)p.r(A)p.r(U)p.r(A)p.r(U)p.r(U)p.r(A)p.r(G)p.r(G)p.d(A)p.d(T)}$$$RNA1{StrandType:ss}|RNA2{StrandType:as}$	74.9%
RNA1{r(C)p.r(C)p.r(U)p.r(C)p.r(C)p.r(A)p.r(G)p.r(A)p.r(C)p.r(A)p.r(C)p.r(A)p.r(C)p.r(C)p.r(A)p.r(U)p.r(A)p.r(U)p.r(G)p.d(T)p.d(T)}|RNA2{r(C)p.r(A)p.r(U)p.r(A)p.r(U)p.r(G)p.r(G)p.r(U)p.r(G)p.r(U)p.r(G)p.r(U)p.r(C)p.r(U)p.r(G)p.r(G)p.r(A)p.r(G)p.r(G)p.d(T)p.d(C)}$$$RNA1{StrandType:ss}|RNA2{StrandType:as}$	66.9%
RNA1{r(C)p.r(U)p.r(G)p.r(A)p.r(A)p.r(A)p.r(G)p.r(A)p.r(U)p.r(C)p.r(A)p.r(A)p.r(U)p.r(G)p.r(G)p.r(G)p.r(C)p.r(A)p.r(G)p.d(T)p.d(T)}|RNA2{r(C)p.r(U)p.r(G)p.r(C)p.r(C)p.r(C)p.r(A)p.r(U)p.r(U)p.r(G)p.r(A)p.r(U)p.r(C)p.r(U)p.r(U)p.r(U)p.r(C)p.r(A)p.r(G)p.d(G)p.d(A)}$$$RNA1{StrandType:ss}|RNA2{StrandType:as}$	79.2%
RNA1{r(C)p.r(U)p.r(U)p.r(G)p.r(U)p.r(A)p.r(G)p.r(A)p.r(U)p.r(G)p.r(A)p.r(G)p.r(A)p.r(A)p.r(U)p.r(U)p.r(U)p.r(U)p.r(A)p.d(T)p.d(T)}|RNA2{r(U)p.r(A)p.r(A)p.r(A)p.r(A)p.r(U)p.r(U)p.r(C)p.r(U)p.r(C)p.r(A)p.r(U)p.r(C)p.r(U)p.r(A)p.r(C)p.r(A)p.r(A)p.r(G)p.d(A)p.d(T)}$$$RNA1{StrandType:ss}|RNA2{StrandType:as}$	91.3%
RNA1{r(G)p.r(A)p.r(A)p.r(A)p.r(U)p.r(G)p.r(U)p.r(U)p.r(C)p.r(A)p.r(A)p.r(A)p.r(C)p.r(A)p.r(G)p.r(A)p.r(C)p.r(A)p.r(G)p.d(T)p.d(T)}|RNA2{r(C)p.r(U)p.r(G)p.r(U)p.r(C)p.r(U)p.r(G)p.r(U)p.r(U)p.r(U)p.r(G)p.r(A)p.r(A)p.r(C)p.r(A)p.r(U)p.r(U)p.r(U)p.r(C)p.d(G)p.d(G)}$$$RNA1{StrandType:ss}|RNA2{StrandType:as}$	76.6%
RNA1{r(G)p.r(A)p.r(A)p.r(U)p.r(U)p.r(A)p.r(A)p.r(G)p.r(A)p.r(G)p.r(G)p.r(A)p.r(G)p.r(A)p.r(A)p.r(A)p.r(U)p.r(A)p.r(G)p.d(T)p.d(T)}|RNA2{r(C)p.r(U)p.r(A)p.r(U)p.r(U)p.r(U)p.r(C)p.r(U)p.r(C)p.r(C)p.r(U)p.r(C)p.r(U)p.r(U)p.r(A)p.r(A)p.r(U)p.r(U)p.r(C)p.d(T)p.d(G)}$$$RNA1{StrandType:ss}|RNA2{StrandType:as}$	74.2%
RNA1{r(G)p.r(A)p.r(C)p.r(A)p.r(C)p.r(A)p.r(C)p.r(C)p.r(A)p.r(U)p.r(A)p.r(U)p.r(G)p.r(A)p.r(A)p.r(G)p.r(G)p.r(A)p.r(G)p.d(T)p.d(T)}|RNA2{r(C)p.r(U)p.r(C)p.r(C)p.r(U)p.r(U)p.r(C)p.r(A)p.r(U)p.r(A)p.r(U)p.r(G)p.r(G)p.r(U)p.r(G)p.r(U)p.r(G)p.r(U)p.r(C)p.d(T)p.d(G)}$$$RNA1{StrandType:ss}|RNA2{StrandType:as}$	64.2%
RNA1{r(G)p.r(A)p.r(G)p.r(G)p.r(A)p.r(A)p.r(G)p.r(A)p.r(U)p.r(A)p.r(C)p.r(C)p.r(A)p.r(A)p.r(C)p.r(U)p.r(A)p.r(G)p.r(A)p.d(T)p.d(T)}|RNA2{r(U)p.r(C)p.r(U)p.r(A)p.r(G)p.r(U)p.r(U)p.r(G)p.r(G)p.r(U)p.r(A)p.r(U)p.r(C)p.r(U)p.r(U)p.r(C)p.r(C)p.r(U)p.r(C)p.d(C)p.d(T)}$$$RNA1{StrandType:ss}|RNA2{StrandType:as}$	79.3%
RNA1{r(G)p.r(A)p.r(G)p.r(G)p.r(A)p.r(G)p.r(A)p.r(A)p.r(A)p.r(U)p.r(A)p.r(G)p.r(C)p.r(A)p.r(G)p.r(G)p.r(A)p.r(C)p.r(C)p.d(T)p.d(T)}|RNA2{r(G)p.r(G)p.r(U)p.r(C)p.r(C)p.r(U)p.r(G)p.r(C)p.r(U)p.r(A)p.r(U)p.r(U)p.r(U)p.r(C)p.r(U)p.r(C)p.r(C)p.r(U)p.r(C)p.d(T)p.d(T)}$$$RNA1{StrandType:ss}|RNA2{StrandType:as}$	54.8%
RNA1{r(G)p.r(A)p.r(U)p.r(C)p.r(C)p.r(A)p.r(C)p.r(A)p.r(G)p.r(G)p.r(A)p.r(U)p.r(G)p.r(C)p.r(U)p.r(G)p.r(U)p.r(A)p.r(G)p.d(T)p.d(T)}|RNA2{r(C)p.r(U)p.r(A)p.r(C)p.r(A)p.r(G)p.r(C)p.r(A)p.r(U)p.r(C)p.r(C)p.r(U)p.r(G)p.r(U)p.r(G)p.r(G)p.r(A)p.r(U)p.r(C)p.d(A)p.d(T)}$$$RNA1{StrandType:ss}|RNA2{StrandType:as}$	67.6%
RNA1{r(G)p.r(A)p.r(U)p.r(G)p.r(C)p.r(U)p.r(G)p.r(U)p.r(A)p.r(G)p.r(U)p.r(A)p.r(G)p.r(C)p.r(A)p.r(A)p.r(A)p.r(U)p.r(C)p.d(T)p.d(T)}|RNA2{r(G)p.r(A)p.r(U)p.r(U)p.r(U)p.r(G)p.r(C)p.r(U)p.r(A)p.r(C)p.r(U)p.r(A)p.r(C)p.r(A)p.r(G)p.r(C)p.r(A)p.r(U)p.r(C)p.d(C)p.d(T)}$$$RNA1{StrandType:ss}|RNA2{StrandType:as}$	65.5%
